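Five concentrations, 48 hours, 96-well plates. At the GI50, growth is halved.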 Active and inactive are the calls of the source. Rule as the data show it: active = GI50 up to about 1.1 µM and inactive = higher.
Key:
Experiment in all cases: NCI tumour cell line growth inhibition, 48 h
[1] = test system: 786-0
[2] = test system: A549
[3] = test system: ACHN
[4] = test system: CAKI-1
[5] = test system: CCRF-CEM
[6] = test system: COLO 205
[7] = test system: DLD-1
[8] = test system: DMS-114
[9] = test system: DMS-273
[10] = test system: EKVX
[11] = test system: HCC 2998
[12] = test system: HCT-116
[13] = test system: HCT-15
[14] = test system: HL-60
[15] = test system: HOP-18
[16] = test system: HOP-62
[17] = test system: HOP-92
[18] = test system: HT-29
[19] = test system: IGROV-1
[20] = test system: K562
[21] = test system: KM12
[22] = test system: LOX IMVI
[23] = test system: LXFL 529
[24] = test system: M14
[25] = test system: M19-MEL
[26] = test system: MOLT-4
[27] = test system: Malme-3M
[28] = test system: NCI-H226
[29] = test system: NCI-H23
[30] = test system: NCI-H460
[31] = test system: NCI-H522
[32] = test system: OVCAR-3
[33] = test system: OVCAR-4
[34] = test system: OVCAR-5
[35] = test system: OVCAR-8
[36] = test system: RPMI-8226
[37] = test system: RXF 393
[38] = test system: RXF 631
[39] = test system: SF-268
[40] = test system: SF-295
[41] = test system: SF-539
[42] = test system: SK-MEL-28
[43] = test system: SK-MEL-2
[44] = test system: SK-MEL-5
[45] = test system: SK-OV-3
[46] = test system: SN12C
[47] = test system: SNB-19
[48] = test system: SNB-75
[49] = test system: SNB-78
[50] = test system: SR
[51] = test system: SW-620
[52] = test system: TK-10
[53] = test system: U-251
[54] = test system: UACC-257
[55] = test system: UACC-62
[56] = test system: UO-31
[57] = test system: XF498
[58] = test system: KM-20L2
[59] = test system: A498

Measured: GI50

CCCCCCCCCc1cc(=O)c2c(O)cccc2o1
inactive: [1] 51.4 µM | [2] 41.8 µM | [3] 42.7 µM | [4] 69.3 µM | [5] 30.8 µM | [6] > 100 µM | [7] 61.8 µM | [8] 33 µM | [9] 41.8 µM | [10] 51.8 µM | [11] 65 µM | [12] 30.3 µM | [14] 25.2 µM | [15] > 100 µM | [16] > 100 µM | [17] 57.5 µM | [18] > 10 µM | [19] 79.6 µM | [20] 29.2 µM | [21] 40.6 µM | [22] 22.8 µM | [23] 39.2 µM | [24] 39.4 µM | [25] > 10 µM | [26] 20.4 µM | [27] 19.3 µM | [28] 38.1 µM | [29] 65.5 µM | [30] 56.2 µM | [31] 34.9 µM | [32] 75.9 µM | [33] 50.7 µM | [34] 38.8 µM | [35] 38.7 µM | [36] 38.2 µM | [37] 53 µM | [38] 65.6 µM | [39] 31.8 µM | [40] 46.3 µM | [41] > 100 µM | [42] 55.6 µM | [43] 23.2 µM | [44] 21 µM | [45] > 100 µM | [46] 87.3 µM | [47] 74.3 µM | [48] > 10 µM | [49] 53 µM | [50] 37.4 µM | [51] 57.9 µM | [52] 54 µM | [53] 48.1 µM | [54] 36.3 µM | [55] 58.2 µM | [56] 37.1 µM | [57] 31.2 µM
41.3 µM: [13]

O=C(NC(=O)c1cn(CCN(CCO)C(=O)NCCCCCCNC(=O)N(CCO)CCn2cc(C(=O)NC(=O)OCc3ccccc3)c(=O)[nH]c2=O)c(=O)[nH]c1=O)OCc1ccccc1
inactive: [1] > 100 µM | [2] > 100 µM | [3] > 100 µM | [4] > 100 µM | [5] > 100 µM | [6] > 100 µM | [7] > 100 µM | [8] > 100 µM | [9] > 100 µM | [10] > 100 µM | [12] > 100 µM | [14] > 100 µM | [15] > 100 µM | [16] > 100 µM | [17] > 100 µM | [18] > 100 µM | [19] > 100 µM | [20] > 100 µM | [58] > 100 µM | [22] > 100 µM | [24] > 100 µM | [25] > 100 µM | [26] > 100 µM | [27] > 100 µM | [29] > 100 µM | [30] > 100 µM | [32] > 100 µM | [33] > 100 µM | [34] > 100 µM | [35] > 100 µM | [36] > 100 µM | [37] > 100 µM | [38] > 100 µM | [40] > 100 µM | [41] > 100 µM | [42] > 100 µM | [43] > 100 µM | [44] > 100 µM | [45] > 100 µM | [46] > 100 µM | [47] > 100 µM | [48] > 100 µM | [49] > 100 µM | [51] > 100 µM | [52] > 100 µM | [53] > 100 µM | [54] > 100 µM | [55] > 100 µM | [56] > 100 µM | [57] > 100 µM
> 100 µM: [13]

O=C1C(Br)=C[C@H]2C3C=CC(Br)(C3=O)[C@@H]12 (stereo partly drawn)
inactive: [1] 14.7 µM | [59] 19 µM | [2] 15.3 µM | [3] 14.6 µM | [4] 9.25 µM | [5] 2.59 µM | [6] 9.75 µM | [7] 7.57 µM | [8] 14 µM | [9] 12.8 µM | [10] 15.4 µM | [11] 13.3 µM | [12] 10.9 µM | [14] 2.43 µM | [15] 49.4 µM | [16] 35.6 µM | [17] 16.2 µM | [18] 10.5 µM | [19] 9.62 µM | [20] 7.62 µM | [58] 4.84 µM | [21] 11.9 µM | [23] 10.2 µM | [24] 9.33 µM | [25] 11.8 µM | [26] 2.3 µM | [27] 13.2 µM | [28] 19 µM | [29] 12.5 µM | [31] 5.85 µM | [32] 13.6 µM | [33] 15.7 µM | [34] 15.6 µM | [35] 12.5 µM | [36] 3.05 µM | [37] 13.8 µM | [38] 14.4 µM | [39] 12.9 µM | [40] 18 µM | [41] 13.3 µM | [42] 12.6 µM | [43] 14.3 µM | [44] 14 µM | [45] 7.69 µM | [46] 13.2 µM | [47] 14.1 µM | [48] 22.5 µM | [49] 94.8 µM | [51] 9.18 µM | [53] 13.8 µM | [54] 12.2 µM | [55] 3.82 µM | [56] 16.7 µM | [57] 17.5 µM
12.2 µM: [13]

Source: ChEMBL document CHEMBL1201862, “PubChem BioAssay data set” (2004)
